Source: US5643868A, “Method of treating or preventing type 1 diabetes by oral administration of insulin” (Autoimmune, Inc., priority 1995, dated 1997)
Several values for one entry are separate records, joined by “and”; a condition that tells them apart may be missing. Equal entries are not always repeated. Entries after “also recorded” stand apart in the source; their conditions may differ.

Columns and labels:
Assay type in all cases: in vivo
[1] = system: NOD (non-obese diabetic) mice; experiment: Effect of feeding porcine insulin on spontaneous diabetes in NOD mice (Example 1)
Excerpt: NOD (non-obese diabetic mice) were obtained from Taconic Laboratories (Germantown, Mass.) at 4 weeks of age. There were a total of 30 animals in each of the groups mentioned below at the beginning of the experiment. At 41/2 weeks of age, animals were orally administered Porcine insulin (Novo Laboratories, Danbury, Conn.). Each animal received two treatments orally twice a week until 9 weeks of age. The mice were fed either saline (control) or 10 micrograms, 100 micrograms, or 1 milligram of Porcine insulin. The animals were fed (gavaged) with an 18 gauge ball-point needle (Popper and Sons, Inc., New Hyde Park, N.Y.). Beginning at 10 weeks the animals were then fed once a week for a total of 33 weeks. Beginning at 12 weeks the urine was tested weekly for the presence of glucose using Glucosuria test tape (Eli Lilly, Indianapolis, Ind.). If an animal tested 3+ or higher on the glucose urine test, a serum sample was taken and blood glucose measured using a glucose analyzer (Beckman). If the blood glucose was 220 or higher, the animals were classified as diabetic and then sacrificed.

NOD mice [2] = experiment: Glucose post oral insulin in fasting 7 week NOD mice (Example 2); conditions: for blood glucose over the next 24 hours: animals in fasting state; for blood glucose after feeding: fasting 7 week old mice
Method: In order to determine whether any endocrinologic (i.e. direct lowering of blood sugar) effects occurred following the feeding of insulin, 7 week old NOD mice (5 mice per group) were fed 1 mg of porcine insulin or 1 mg of myelin basic protein (obtained from Pel Freez, Rogers, Ark.) as a control protein. Blood glucose was then measured over the next 24 hour period. As a positive control, a separate group of animals were injected subcutaneously with 20 micrograms of Porcine insulin. All animals were kept in the fasting state.

NOD mice [3] = experiment: Preliminary experiments: insulitis in NOD mice fed insulin; conditions: fed 1 mg of insulin; data not shown
Excerpt: Therefore, oral administration of insulin to NOD mice appeared to be affecting the infiltration of immune system cells into the pancreas and thus halting disease progression by preserving beta cell function.

NOD mice [4] = experiment: Effect of aerosol administration of insulin on diabetes in NOD mice (Example 4); conditions: 0 to 1 mg insulin in aerosol form by nebulizer
Method: Insulin (0 to 1 mg as in Examples 1 and 2) will be administered to NOD mice as described above in Examples 1 and 2 except in aerosol form by nebulizer.

NOD mice [5] = experiment: Treatment of initial stages of diabetes in NOD mice (Example 5); conditions: 0 to 1 mg insulin, oral and aerosol, hyperglycemic mice from weeks 12-20 of age
Method: Insulin (0 to 1 mg as in Examples 1 and 2) will be administered to NOD mice which are suffering from hyperglycemia in an oral and aerosol form. The treatments will begin by weeks 12-20 of age, by which the serum glucose levels are at hyperglycemic concentrations in a certain percentage of animals prior to onset of diabetes.

Substance | development of diabetes ([1]; 1 mg porcine insulin fed orally (gavage), diabetic = blood glucose 220 or higher) | development of diabetes ([1]; 10 micrograms porcine insulin fed orally) | incidence of diabetes, all oral doses tested ([1]; 10 micrograms, 100 micrograms, 1 mg oral, dose-dependent) | development of diabetes ([1]; 100 micrograms porcine insulin fed orally) | blood sugar of individual animals which developed diabetes ([1]; fed 10 micrograms of insulin) | blood sugar of individual animals that became diabetic ([1]; fed 100 micrograms of insulin) | treated animals that failed to develop diabetes ([1]; highest dose of oral insulin (1 mg)) | endocrinologic (metabolic) effects of feeding (NOD mice [2]; 1 mg fed orally) | blood glucose over the next 24 hours (NOD mice [2]; 1 mg fed orally) | blood glucose after feeding (NOD mice [2]; 1 mg fed orally) | decrease in the glucose level (NOD mice [2]; 20 micrograms porcine insulin injected subcutaneously (positive control), fasting) | period over which the drop in glucose persisted (NOD mice [2]; 20 micrograms porcine insulin subcutaneously, fasting) | inflammatory immune system cells surrounding the pancreas (insulitis) vs PBS-fed mice (NOD mice [3]) | prevention of symptoms (hyperglycemia) of Type 1 diabetes (NOD mice [4]) | beta cell function (NOD mice [5]) | serum glucose concentrations (NOD mice [5])
insulin | none of the mice went on to develop diabetes; also recorded: no diabetes developed in any of the animals; also recorded: None of the animals developed diabetes | diabetes developed | lower incidence of diabetes at all doses; also recorded: reduced the numbers of these mice which subsequently went on to develop diabetes | diabetes developed | 330 mg/dL and 420 mg/dL and 315 mg/dL and 459 mg/dL and 520 mg/dL and 487 mg/dL | 500 mg/dL and 290 mg/dL and 600 mg/dL and 450 mg/dL | 100% | no endocrinologic (metabolic) effects | gradual decrease in blood glucose | no drop in the blood glucose | approximately 80 mg % | 4 h | fewer inflammatory immune system cells surrounding the pancreas | effective in preventing the manifestation of symptoms | preservation of beta cell function | reduction in serum glucose concentrations to near normal levels
myelin basic protein |  |  |  |  |  |  |  |  | gradual decrease in blood glucose | no drop in the blood glucose |  |  |  |  |  | 
